Reference: the NIST ThermoML archive (doi:10.1016/j.jct.2016.06.034)

Test: mn = molality of the nth substance listed, in mol/kg
Details: 84.5 kPa, Liquid; for electrical conductivity: Alternating current cell with electrodes; for speed of sound: Frequency=3 MHz, Sing-around technique in a fixed-path interferometer; for mass density: Vibrating tube method

CCCCCCCCCCn1cc[n+](C)c1.[Br-] [1-decyl-3-methylimidazolium bromide] + O
Details	electrical conductivity [S/m]	mass density [kg/m3]	speed of sound [m/s]
298.15 K, m1 = 0.0095	–	997.416	1498.6
298.15 K, m1 = 0.01379	–	997.587	1499.5
298.15 K, m1 = 0.01652	–	997.693	1500
298.15 K, m1 = 0.02179	–	997.899	1500.9
298.15 K, m1 = 0.02615	–	998.07	1501.7
298.15 K, m1 = 0.03106	–	998.263	1502.5
298.15 K, m1 = 0.03338	–	998.353	1502.9
298.15 K, m1 = 0.03397	0.283	–	–
298.15 K, m1 = 0.03638	0.3	–	–
298.15 K, m1 = 0.03819	–	998.54	1503.7
298.15 K, m1 = 0.03875	0.317	–	–
298.15 K, m1 = 0.04039	0.327	–	–
298.15 K, m1 = 0.0406	–	998.636	1503.9
298.15 K, m1 = 0.04217	0.338	–	–
298.15 K, m1 = 0.04332	–	998.732	1504.2
298.15 K, m1 = 0.04391	0.346	–	–
298.15 K, m1 = 0.04608	0.354	–	–
298.15 K, m1 = 0.04614	–	998.829	1504.4
298.15 K, m1 = 0.04825	0.361	–	–
298.15 K, m1 = 0.05051	0.368	–	–
298.15 K, m1 = 0.0526	0.373	–	–
298.15 K, m1 = 0.05487	0.379	–	–
298.15 K, m1 = 0.05515	–	999.136	1504.7
298.15 K, m1 = 0.05749	0.386	–	–
298.15 K, m1 = 0.06017	0.392	–	–
298.15 K, m1 = 0.06271	0.398	–	–
298.15 K, m1 = 0.06396	–	999.429	1504.8
298.15 K, m1 = 0.07815	–	999.895	1504.9
298.15 K, m1 = 0.122	–	1001.31	1505.1
298.15 K, m1 = 0.1726	–	1002.91	1505.4
298.15 K, m1 = 0.2247	–	1004.51	1505.7
298.15 K, m1 = 0.2539	–	1005.39	1505.9
303.15 K, m1 = 1e-05	0.00018	–	–
303.15 K, m1 = 3e-05	0.000342	–	–
303.15 K, m1 = 4e-05	0.000511	–	–
303.15 K, m1 = 5e-05	0.000676	–	–
